Read-outs that look alike come from different tables or passages of the source. Blank lines part the entries; values can stand above or below the compound they belong to.
Key:
[1] = tested on: HT-29 (human colorectal adenocarcinoma) cells; test: MTT reduction assay, antiproliferative effect, HT-29; type: cell-based; settings: for IC50: read-out: HT-29 IC50; for viability at 25 µM: cell line not named in the sentence (NA in HT-29, MCF-7, MOLT-4 in Table 1), read-out: Cell viability at the highest tested concentration
Text: (§1) Fetal bovine serum (FBS), phosphate-buffered saline (PBS), RPMI-1640, and trypsin were obtained from Biosera (Ringmer, UK). Penicillin/streptomycin and MTT (3-(4,5-dimethylthiazol-2-yl)-2,5-diphenyltetrazolium bromide) were from Sigma-Aldrich (Saint Louis, MO, USA) and Invitrogen (San Diego, CA, USA), respectively. Dimethyl sulfoxide and doxorubicin were purchased from Merck (Darmstadt, Germany) and EBEWE Pharma (Unterach, Austria), respectively. The cells were acquired from Iranian Biological Resource Center, Tehran, Iran (HT-29 (human colorectal adenocarcinoma), MCF-7 (human breast adenocarcinoma) and Vero (African green monkey kidney) cells) or National Cell Bank of Iran, Pasteur Institute, Tehran, Iran (MOLT-4 (lymphoblastic leukemia) cells).
(§2) MTT reduction assay was employed to assess the viability of cancer cells after being treated with synthesized derivatives as previously described ([34]). The cells were plated in flat-bottom 96-well microplates, at densities of 3 × 10^4 cells/mL (100 μL in each well) and then incubated overnight at 37 °C. Three to four different concentrations of synthesized derivatives (in the range of 1 to 100 μM) were placed in triplicate wells and the plates were incubated for 72 h at 37 °C. […] At the end of the incubation time, 80 μL of the media in each well was replaced with the same amount of growth medium without phenol red containing 0.5 mg/mL of MTT. Cells were further incubated at 37 °C for 4 h and then 80 μL of the solution of each well was removed. The addition of DMSO (200μL) to each well solubilized the formazan crystals formed inside the viable cells after 1-hour incubation followed by 30-minute shaking. The optical absorbance of the final solution was determined at 570 nm using a Bio-Tek multimode plate reader (Synergy HTX). The cell viability was calculated compared to untreated control cells by comparison of absorbance measurements. CurveExpert software (version 1.34 for Windows) was used to determine the IC50 value for each compound. To confirm the results, every experiment was repeated 3 to 5 times.

[2] = tested on: MOLT-4 (lymphoblastic leukemia) cells; test: MTT reduction assay, antiproliferative effect, MOLT-4; type: cell-based, human; settings: read-out: MOLT-4 IC50
Text: as §1, §2

[3] = tested on: MCF-7 (human breast adenocarcinoma) cells; test: MTT reduction assay, antiproliferative effect, MCF-7; type: cell-based
Text: as §1, §2

[4] = tested on: Vero (African green monkey kidney) cells; test: MTT reduction assay, Vero normal cells; type: cell-based; settings: read-out: Vero IC50
Text: as §1, §2

MCF-7 cells [5] = test: Hoechst 33258 staining, detection of apoptosis; type: cell-based, human; settings: MCF-7, 72 h treatment, especially at 25 µM
Experimental: Hoechst 33258 was used as a DNA stain to detect apoptosis in cells. MCF-7 cells were seeded in a 6-well plate at a density of 5 × 10^4 cells/mL (2 mL per well) and incubated for 24 h. The whole medium was removed and different concentrations of test compounds 9g, 9j, 9k, and 9l diluted in 2 mL medium were placed in the different wells and incubated for 72 h. Afterward, the medium was removed again, 1 mL of 4% cold freshly prepared paraformaldehyde (PFA) was added, and cells were incubated for 20 min at room temperature. The cells were then washed 2 times with 1 ml PBS and incubated with 1 mL Hoechst 33258 2.5 µg/mL for 30 min in the dark at room temperature ([36], [37]). In the end, the cells were washed with 1 mL PBS and imaged with a fluorescence microscope.
Figure 3 Detection of apoptosis in MCF-7 cells by Hoechst staining. Hoechst 33258 was used as a DNA stain to detect apoptosis in MCF-7 cells treated with synthesized compounds. The cells were seeded in a 6-well plates and treated with different concentrations of test compounds 9g, 9j, 9k and 9l for 72 h. After removing the whole medium, 4% cold freshly prepared paraformaldehyde (PFA) was added for 20 min at room temperature, the cells were then washed twice with PBS, and incubated with Hoechst 33258 2.5 µg/mL for 30 min at room temperature in the dark. Finally, the cells were washed with PBS again and the plates were imaged with a fluorescence microscope

MCF-7 cells [6] = test: Cell cycle analysis, propidium iodide/RNase flow cytometric assay; type: cell-based, human; settings: 48 h; for Effect on number of cells in G0/G1: MCF-7, 10 and 25 µM
Experimental: Alterations of the cell cycle were determined by the propidium iodide (PI)-RNase flow cytometric method ([35]). MCF-7 cells were used to determine the percentage of cells in each phase of the cell cycle. In 6-well plates, 2 × 10^5 cells were seeded in each well and incubated at 37 °C for 48 h. Afterward, they were treated for 48 h with derivatives 9g, 9j, 9k and 9l at 10 and 25 μM. The cells were then collected after trypsinization, washed twice with PBS, and fixed by 5 mL ethanol 70% for at least 24 h at -20 °C. After fixation, MCF-7 cells were washed with PBS two times and stained with PI 20 µg/mL and RNase 200 µg/mL for 30 min in the dark at room temperature. A FACS Calibur ﬂow cytometer (BD Biosciences) was used for the assays and 20,000 events were analyzed. The number of cells distributed in sub-G1, G0/G1, S, and G2/M were determined by CellQuest software (BD, USA).
Figure 2 Representative cell cycle histograms of MCF-7 cells treated with synthesized derivatives. Analysis of the percentage of cells in different phases of cell cycle was performed using propidium iodide (PI)-RNase flow cytometric assay. MCF-7 cells were seeded in 6-well microplates and treated with synthesized derivatives for 48 h. The cells were then collected and fixed in 70% ethanol overnight at -20 °C. In the end, the cells were stained with DNA staining solution (PI 20 µg/mL and RNase 200 µg/mL) for 30 min and 20,000 events were analyzed by a FACS Calibur ﬂow cytometer (BD Biosciences). Representative histograms of cells treated with compounds 9g, 9j, 9k and 9l are shown

[7] = Homo sapiens, MCF7, 72 h, read-out: MCF-7 IC50, MTT, 72 h incubation
[8] = Chlorocebus sabaeus, Vero, 72 h

Structure (SMILES): N.N.[Cl][Pt][Cl] [Cisplatin, reference compound]
IC50 ([1]; MTT, 72 h incubation): 24.6 ± 3.6 µM
IC50 ([2]; MTT, 72 h incubation): 2.9 ± 0.2 µM
IC50 ([3]; MTT, 72 h incubation, read-out: MCF-7 IC50): 8.1 ± 2.6 µM
IC50 ([4]; MTT, 72 h incubation, normal cells): 7.8 ± 1 µM

Structure (SMILES): C(=NNc1nnc2c3ccccc3c3ccccc3c2n1)c1ccc[nH]1 [Compound 9k, 3-(2-((1H-pyrrol-2-yl)methylene)hydr-zinyl)phenanthro[9,10-e][1,2,4]triazine]
IC50 ([1]; Homo sapiens, HT-29, 72 h): 14.3 ± 2.8 µM
melting point: 210 to 214 °C
Apoptosis induction by Hoechst 33258 staining (MCF-7 cells [5]): showed signs of apoptosis
IC50 ([2]; Homo sapiens, MOLT-4, 72 h): 1.7 ± 0.2 µM
IC50 [3, 7]: 4.5 ± 0.16 µM
IC50 ([3]; read-out: MCF-7 IC50, MTT, 72 h incubation): 4.7 ± 0.3 µM
Percentage of cells in G0/G1 (MCF-7 cells [6]; MCF-7, 10 µM): 77.30 ± 2.8
Percentage of cells in G2/M (MCF-7 cells [6]; MCF-7, 10 µM): 16.63 ± 2.5
Percentage of cells in S (MCF-7 cells [6]; MCF-7, 10 µM): 4.63 ± 0.7
Percentage of cells in Sub G1 (MCF-7 cells [6]; MCF-7, 10 µM): 1.31 ± 0.1
Effect on cells in sub-G1 phase (MCF-7 cells [6]; MCF-7, 25 µM): increased the cells in the sub-G1 phase
Percentage of cells in G0/G1 (MCF-7 cells [6]; MCF-7, 25 µM): 77.42 ± 3.7
Percentage of cells in G2/M (MCF-7 cells [6]; MCF-7, 25 µM): 16.13 ± 2.9
Percentage of cells in S (MCF-7 cells [6]; MCF-7, 25 µM): 4.68 ± 1.2
Percentage of cells in Sub G1 (MCF-7 cells [6]; MCF-7, 25 µM): 1.69 ± 0.4
Effect on number of cells in G0/G1 (MCF-7 cells [6]): significantly enhanced the number of cells in the G0/G1
IC50 [4, 8]: 95.4 ± 12.4 µM

Structure (SMILES): COc1ccccc1C=NNc1nnc2c3ccccc3c3ccccc3c2n1 [Compound 9b, 3-(2-(2-methoxybenzylidene)hydrazinyl)phenanthro[9,10-e][1,2,4]triazine]
IC50 ([1]; Homo sapiens, HT-29, 72 h): 20.1 ± 3 µM
melting point: 252 to 254 °C
IC50 ([2]; Homo sapiens, MOLT-4, 72 h): 7.8 ± 1.8 µM
IC50 [3, 7]: 15.2 ± 3.1 µM
IC50 [4, 8]: 13 ± 1.8 µM

Structure (SMILES): O=[N+]([O-])c1ccc(C=NNc2nnc3c4ccccc4c4ccccc4c3n2)cc1 [Compound 9i, 3-(2-(4-nitrobenzylidene)hydrazinyl)phenanthro[9,10-e][1,2,4]triazine]
IC50 ([1]; Homo sapiens, HT-29, 72 h): 7.6 ± 0.8 µM
melting point: 240 to 244 °C
IC50 ([2]; Homo sapiens, MOLT-4, 72 h): 7.5 ± 0.1 µM
IC50 [3, 7]: 17.7 ± 1.7 µM
IC50 [4, 8]: 7.4 ± 1.4 µM

Structure (SMILES): Oc1cccc(C=NNc2nnc3c4ccccc4c4ccccc4c3n2)c1 [Compound 9e, 3-((2-(phenanthro[9,10-e][1,2,4]triazin-3-yl)hydrazono)methyl)phenol]
IC50 ([1]; Homo sapiens, HT-29, 72 h): 15.2 ± 2.1 µM
melting point: 219 to 223 °C
IC50 ([2]; Homo sapiens, MOLT-4, 72 h): 4.4 ± 1.1 µM
IC50 [3, 7]: 9.3 ± 1.6 µM
IC50 [4, 8]: 30 ± 6 µM

Structure (SMILES): C(=NNc1nnc2c3ccccc3c3ccccc3c2n1)c1cccs1 [Compound 9l, 3-(2-(thiophene-2-ylmethylene)hydraz-inyl)phenanthro[9,10-e][1,2,4]triazine]
IC50 ([1]; Homo sapiens, HT-29, 72 h): 12.9 ± 3.5 µM
melting point: 228 to 231 °C
Apoptosis induction by Hoechst 33258 staining (MCF-7 cells [5]): showed signs of apoptosis
IC50 ([2]; Homo sapiens, MOLT-4, 72 h): 6.8 ± 0.7 µM
IC50 [3, 7]: 6.9 ± 0.9 µM
Percentage of cells in G0/G1 (MCF-7 cells [6]; MCF-7, 10 µM): 73.76 ± 0.6
Percentage of cells in G2/M (MCF-7 cells [6]; MCF-7, 10 µM): 18.50 ± 1.7
Percentage of cells in S (MCF-7 cells [6]; MCF-7, 10 µM): 6.28 ± 1.0
Percentage of cells in Sub G1 (MCF-7 cells [6]; MCF-7, 10 µM): 1.32 ± 0.3
Effect on cells in sub-G1 phase (MCF-7 cells [6]; MCF-7, 25 µM): increased the cells in the sub-G1 phase
Percentage of cells in G0/G1 (MCF-7 cells [6]; MCF-7, 25 µM): 72.07 ± 0.9
Percentage of cells in G2/M (MCF-7 cells [6]; MCF-7, 25 µM): 19.43 ± 0.8
Percentage of cells in S (MCF-7 cells [6]; MCF-7, 25 µM): 6.75 ± 0.9
Percentage of cells in Sub G1 (MCF-7 cells [6]; MCF-7, 25 µM): 1.56 ± 0.3
Effect on number of cells in G0/G1 (MCF-7 cells [6]): significantly enhanced the number of cells in the G0/G1
IC50 [4, 8]: 6.2 ± 3.1 µM

Structure (SMILES): N#Cc1ccc(C=NNc2nnc3c4ccccc4c4ccccc4c3n2)cc1 [Compound 9j, 4-((2-(phenanthro[9,10-e][1,2,4]triazin-3-yl)hydrazono)methyl)benzonitrile]
IC50 ([1]; Homo sapiens, HT-29, 72 h): 15.3 ± 1.5 µM
melting point: 231 to 234 °C
Apoptosis induction by Hoechst 33258 staining (MCF-7 cells [5]): showed signs of apoptosis
IC50 ([2]; Homo sapiens, MOLT-4, 72 h): 5.5 ± 0.1 µM
IC50 [3, 7]: 5.8 ± 0.7 µM
Percentage of cells in G0/G1 (MCF-7 cells [6]; MCF-7, 10 µM): 71.40 ± 2.2
Percentage of cells in G2/M (MCF-7 cells [6]; MCF-7, 10 µM): 17.95 ± 3.0
Percentage of cells in S (MCF-7 cells [6]; MCF-7, 10 µM): 9.59 ± 2.0
Percentage of cells in Sub G1 (MCF-7 cells [6]; MCF-7, 10 µM): 1.08 ± 0.2
Percentage of cells in G0/G1 (MCF-7 cells [6]; MCF-7, 25 µM): 73.10 ± 3.0
Percentage of cells in G2/M (MCF-7 cells [6]; MCF-7, 25 µM): 17.51 ± 2.6
Percentage of cells in S (MCF-7 cells [6]; MCF-7, 25 µM): 8.09 ± 2.0
Percentage of cells in Sub G1 (MCF-7 cells [6]; MCF-7, 25 µM): 1.30 ± 0.4
Effect on number of cells in G0/G1 (MCF-7 cells [6]): significantly enhanced the number of cells in the G0/G1
IC50 [4, 8]: 11.3 ± 2.1 µM

Structure (SMILES): O=[N+]([O-])c1cccc(C=NNc2nnc3c4ccccc4c4ccccc4c3n2)c1 [Compound 9h, 3-(2-(3-nitrobenzylidene)hydrazinyl)phenanthro[9,10-e][1,2,4]triazine]
IC50 ([1]; Homo sapiens, HT-29, 72 h): 12.2 ± 4.1 µM
melting point: 216 to 219 °C
IC50 ([2]; Homo sapiens, MOLT-4, 72 h): 3.9 ± 0.6 µM
IC50 [3, 7]: 10.4 ± 2.9 µM
IC50 [4, 8]: 19.4 ± 6.8 µM

IC50 ([1]; Homo sapiens, HT-29, MTT, 72 h incubation): 0.409 ± 0.038 µM
IC50 ([2]; Homo sapiens, MOLT-4, MTT, 72 h incubation): 0.017 ± 0.001 µM
IC50 ([3]; Homo sapiens, MCF7, MTT, 72 h incubation, read-out: MCF-7 IC50): 0.066 ± 0.007 µM
Structure (SMILES): COc1cccc2c1C(=O)c1c(O)c3c(c(O)c1C2=O)C[C@@](O)(C(=O)CO)C[C@@H]3O[C@H]1C[C@H](N)[C@H](O)[C@H](C)O1 [Doxorubicin, reference compound]
IC50 ([4]; Chlorocebus sabaeus, Vero, MTT, 72 h incubation, normal cells): 0.926 ± 0.031 µM

melting point: 329 to 333 °C
Structure (SMILES): Oc1cccc(C=NNc2nnc3c4ccccc4c4ccccc4c3n2)c1O [Compound 9f, 3-((2-(phenanthro[9,10-e][1,2,4]triazin-3-yl)hydrazono)methyl)benzene-1,2-diol]
viability at 25 µM ([1]; Homo sapiens, MTT): ≥ 50%

melting point: 286 to 290 °C
Structure (SMILES): C(=NNc1nnc2c3ccccc3c3ccccc3c2n1)c1ccccc1 [Compound 9a, 3-(2-benzylidenehydrazinyl)phenanthro [9,10-e][1,2,4]triazine]
viability at 25 µM ([1]; Homo sapiens, MTT): ≥ 50%
